Measurements reported in patent US9999687B2, “Fluorescent imaging agents” (VisEn Medical, Inc., priority 2008, dated 2018).
One block for each substance: values may come before it. The star is where a group is joined. YPEG 2×20 kDa = Y-shaped PEG of 2×20 kDa; Pent4ynoyl = C#CCCC(=O)*; F5 = not defined here; F6 = not defined here

Legend:
[1] = system: carrageenan induced paw edema; experiment: Inflammation imaging, carrageenan induced paw edema; assay type: in vivo, BALB/c female mice; conditions: 1% carrageenan subcutaneously, fluorescence molecular tomography; FIG. 9
Procedure: Briefly, BALB/c female mice 6-8 weeks old (Charles River Laboratory, Wilmington, Mass.) were injected subcutaneously with a 1% solution of carrageenan in PBS. After 1 minute post-injection, mice were injected the imaging agent Q91. Imaging was conducted at various time points using a Fluorescence Molecular Tomography system (VisEn Medical, Woburn Mass.).

trypsin = experiment: Enzyme activation of R22, trypsin; assay type: biochemical; conditions: 0.5 μM R22, 0.05 μM enzyme, room temperature, 24 hours; FIG. 13
Procedure: (§1) Activation by recombinant enzymes was carried out in 250 μL volumes set up in 96 well plates. MMPs were activated prior to the reaction according to manufacturers' protocols. Reactions contained 0.5 μM of R22 and 0.05 μM of activated enzyme in the appropriate activation buffer for each enzyme and incubated at room temperature for 24 hours. The plates were read at 24 hours with excitation/emission wavelength 740/770 nm. Fluorescence readings were performed using a Gemini (Molecular Devices) Fluorescence Plate Reader. Wells in which no enzyme was added were used as controls. Fold activation was obtained by dividing the enzyme-activated read-out (in relative fluorescence units) by its corresponding control well.

recombinant human MMP-13 = biological target: T1, recombinant human MMP-13 (Homo sapiens, UniProt P45452); experiment: Enzyme activation of R22, MMP-13; assay type: biochemical; conditions: 0.5 μM R22, 0.05 μM enzyme, room temperature, 24 hours; FIG. 13
T1 construct: purchased
Procedure: as §1

[2] = system: atherosclerotic plaque in ApoE -/- knockout mice; experiment: Imaging of macrophage activity in atherosclerotic plaque; assay type: in vivo; conditions: intravenous, 6 hours post-injection
Procedure: Age-matched C57BL6 wild type female mice (Charles river Laboratories) were fed a normal diet and ApoE −/− knockout female mice (Jackson Laboratories) were fed a high cholesterol diet for 10-20 weeks. The mice were injected intravenously with compounds of formula R51 ([mPEG-20kDa-Suc]-Lys(F6)-Gly-Phe-Leu-Gly-Lys(F6)-[NH2]) (SEQ ID NO:435) and R55 ([mPEG-20kDa-Suc]-Lys(F6)-Arg-Arg-Lys(F6)-[NH2]) (SEQ ID NO:438). The mice were then imaged at 6 and 24 hours by fluorescence molecular tomography or fluorescence reflectance using an FMT2500 (VisEn Medical, Bedford, Mass.).

[3] = system: Cathepsin B, Cathepsin K, Cathepsin L, or Cathepsin S; experiment: Enzyme activation profiles of R51 to R59, cathepsins; assay type: biochemical; conditions: compound 0.5 uM, enzyme 0.05 uM, monitored for 24 hours; FIG. 15
Procedure: Compounds at a concentration of 0.5 uM were incubated with Cathepsin B, Cathepsin K, Cathepsin L, or Cathepsin S at a concentration of 0.05 uM. The reaction buffers used were as follows: Cathepsin K—50 mM MES, pH 5.0, 2.5 mM EDTA, 2.5 mM DTT; Cathepsin B—25 mM MES, pH 5.0, 1 mM DTT; Cathepsin S—50 mM NaOAc, pH 4.5, 5 mM DTT, 0.25M NaCl; Cathepsin L—50 mM MES, pH 6, 5 mM DTT. The activity was monitored for 24 hours with a Gemini (Molecular Devices) fluorescence plate reader at excitation 663 nm and emission 690 nm with a cut off of […].

Substance: Pentynoyl-Lys(F5)-Pro-Leu-Gly-Val-Arg-Lys(F5)-PEG20kDa (Pent4ynoyl-K(F5)PLGVRK(F5)-PEG20kDa; reading uncertain; also: printed as Pentynoyl-Lys(F5)-Pro-Leu-Gly-Val-Arg-Lys(F5)-PEG20kDa) [Agent Q91]
- fluorescence in carrageenan injected paw versus control paw [1]: significantly more fluorescence is observed in the mouse paw injected with carrageenan compared to the control paw

- activation by trypsin (fold activation) (trypsin): activated primarily
- activation by recombinant human MMP-13 (fold activation) (recombinant human MMP-13): activated primarily
Substance: [F6]-Gly-Pro-Leu-Gly-Val-Arg-Lys(F6)-[YPEG 2×20 kDa] (F6-GPLGVRK(F6)-{YPEG 2×20 kDa}; reading uncertain; also: printed as [F6]-Gly-Pro-Leu-Gly-Val-Arg-Lys(F6)-[YPEG 2×20 kDa]) [Agent R22]

Substance: [mPEG-20kDa-Suc]-Lys(F6)-Gly-Phe-Leu-Gly-Lys(F6)-[NH2] ({mPEG‑20kDa‑Suc}-K(F6)GFLGK(F6)-NH2; reading uncertain; also: printed as [mPEG-20kDa-Suc]-Lys(F6)-Gly-Phe-Leu-Gly-Lys(F6)-[NH2]) [Agent R51]
- fluorescent signal in ApoE knockout mice versus wild type controls ([2]; fluorescence molecular tomography, FIG. 17): greater fluorescent signal in the ApoE knockout mice over controls
- fluorescent signal in ApoE knockout mice versus wild type controls ([2]; tomography and reflectance, FIG. 16): greater fluorescent signal in the ApoE knockout mice over controls
- activation by various Cathepsin proteases compared with the other imaging agents [3]: greater than that of the other imaging agents
